Laboratory results as given in article PMC3134342 (Journal of Experimental Botany, 2011).

Legend:
[1] = biological target: T1, At-A/N-InvG (Arabidopsis thaliana, UniProt Q9LQF2); assay: inhibition of sucrose hydrolysis, fructose by HPAEC-PAD; assay type: biochemical
T1 sequence (Q9LQF2 1-551): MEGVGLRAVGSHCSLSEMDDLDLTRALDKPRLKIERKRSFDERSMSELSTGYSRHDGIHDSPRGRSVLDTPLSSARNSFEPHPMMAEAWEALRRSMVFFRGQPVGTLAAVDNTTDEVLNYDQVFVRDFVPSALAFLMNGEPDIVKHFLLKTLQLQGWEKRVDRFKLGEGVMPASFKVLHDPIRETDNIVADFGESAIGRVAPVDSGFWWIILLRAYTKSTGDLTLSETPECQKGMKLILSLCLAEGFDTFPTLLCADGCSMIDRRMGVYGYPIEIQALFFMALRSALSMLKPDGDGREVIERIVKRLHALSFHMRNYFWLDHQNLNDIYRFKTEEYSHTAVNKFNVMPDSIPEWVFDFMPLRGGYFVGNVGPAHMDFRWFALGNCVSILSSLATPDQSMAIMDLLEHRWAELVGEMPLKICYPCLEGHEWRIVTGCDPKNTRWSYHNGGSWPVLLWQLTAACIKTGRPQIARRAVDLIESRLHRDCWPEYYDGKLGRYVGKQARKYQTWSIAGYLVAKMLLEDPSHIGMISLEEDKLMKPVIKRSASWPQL

[2] = biological target: T2, At-A/N-InvA (Arabidopsis thaliana, UniProt Q9FXA8); assay: as above; assay type: biochemical; details: 100 mM sucrose, 50 mM potassium phosphate, pH 8.2, 30 °C
T2 sequence (Q9FXA8 79-616): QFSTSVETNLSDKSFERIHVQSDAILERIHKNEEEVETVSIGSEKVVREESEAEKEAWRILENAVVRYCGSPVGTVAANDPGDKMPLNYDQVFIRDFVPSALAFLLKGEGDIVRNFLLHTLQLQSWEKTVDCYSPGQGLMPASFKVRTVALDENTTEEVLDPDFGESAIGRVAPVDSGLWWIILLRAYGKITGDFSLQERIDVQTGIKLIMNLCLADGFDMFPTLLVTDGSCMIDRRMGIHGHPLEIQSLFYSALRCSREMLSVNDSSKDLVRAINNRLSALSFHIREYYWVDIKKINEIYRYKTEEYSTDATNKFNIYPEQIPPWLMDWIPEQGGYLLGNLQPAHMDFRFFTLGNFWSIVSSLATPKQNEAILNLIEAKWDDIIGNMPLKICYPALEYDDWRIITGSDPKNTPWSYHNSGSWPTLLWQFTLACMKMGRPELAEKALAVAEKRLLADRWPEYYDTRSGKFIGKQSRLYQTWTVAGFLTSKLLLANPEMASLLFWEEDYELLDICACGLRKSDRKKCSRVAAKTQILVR

With `NC(CO)(CO)CO` [TRIS] the IC50 [1] was 25 to 30 mM and the “activity vs TRIS concentration” value [2] was “A typical inhibitory effect of TRIS on At-A/N-InvA activity was found”.
